Here are results for 18 molecules from PubChem BioAssay (NCI).

Values joined by “and” are separate entries in the source; they are usually repeats but may differ in a detail not shown here. Equal entries are not always repeated.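 Tested at 5 concentrations; 48 h exposure; 96-well plates; endpoints linearly interpolated, else capped at highest concentration. GI50: concentration for 50% inhibition of growth. TGI marks complete inhibition of growth.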

What all share (assay): growth of human tumour cells (NCI), 48 h
For experiment [1], the system named is NCI-H23 lung.
The test system of experiment [2] is NCI-H460 lung.
Experiment [3] deals with KM12 colon.
Experiment [4] deals with SF-539 CNS.
Experiment [5] relates to HOP-62 NSCLC.
For experiment [6], the system named is HOP-92 NSCLC.
The test system of experiment [7] is CCRF-CEM leukemia.
Experiment [8] relates to SK-MEL-2 melanoma.
The subject of experiment [9] is SF-295 CNS.
Experiment [10] has as its system SK-OV-3 ovarian.

In the case of `COc1ccc(-c2cc3c(C)nc(N)nc3n(C3CCC(OCCO)CC3)c2=O)cn1` (stereo not drawn), the GI50 in experiment [1] was 0.156 µM and 0.0977 µM; in experiment [2], 0.0629 µM and 0.0475 µM; in [3] it was 0.231 µM and 0.209 µM; in experiment [4] it was 0.131 µM and 0.126 µM; in experiment [5], 0.0997 µM and 0.113 µM; in experiment [6], 0.0362 µM. Moreover, the GI50 in experiment [7] is 0.134 µM and 0.0803 µM; in experiment [8], 0.124 µM and 0.0674 µM; in experiment [9], 0.0501 µM and 0.0401 µM; in experiment [10], 0.044 µM and 0.0814 µM. Moreover, the TGI in experiment [1] was more than 6.91 µM; in experiment [2], more than 35.3 µM; in experiment [3] it was 3.9 µM and 2.92 µM; in experiment [4], 0.552 µM and 0.461 µM; in [5], 2.11 µM and 1.93 µM; in experiment [7], more than 23.8 µM. The TGI in [8] was 0.549 µM and 0.392 µM; in experiment [9], 0.326 µM and 0.275 µM; in [10] it was 0.291 µM and 0.527 µM.
`C1CCCCc2nc3c(nc2CCC1)c1nc2c(nc1c1nc4c(nc31)CCCCCCCC4)CCCCCCCC2`: the TGI in experiment [1], in experiment [2], in experiment [3], in experiment [4], in experiment [5] and in [6] was more than 100 µM in each case. Besides, the TGI in experiment [7], in experiment [8], in experiment [9] and in experiment [10] was more than 100 µM each time.
In the case of `Cc1c(C(=O)O)n(C)c(=O)n(C)c1=O`, the TGI in experiment [1], in experiment [2], in experiment [3], in experiment [4], in experiment [5] and in experiment [6] was more than 100 µM each time. The TGI in [7], in experiment [8], in [9] and in [10] was more than 100 µM each time.
For the molecule `CCCOC(=O)c1c(C)n(C)c2scc[n+]12`, the GI50 in [1] was 34.2 µM; in [2], 52.8 µM; in experiment [3], 44.5 µM; in experiment [4], 91.2 µM; in [5], 44.6 µM; in experiment [6] it was 15.1 µM. Further, the GI50 in experiment [7] was 53.5 µM; in experiment [8] it was 64.1 µM; in experiment [9], 41.7 µM; in [10] it was 49.6 µM. The TGI in experiment [1], in experiment [2], in experiment [3], in [4], in experiment [5] and in experiment [6] was more than 100 µM in each case. Besides, the TGI in experiment [7], in [8], in experiment [9] and in [10] was more than 100 µM throughout.
As to `O=C(NC(=O)c1c(Cl)nc2sccn12)Nc1ccc(Cl)cc1`, the TGI in [1] is 88.1 µM; in experiment [2], more than 100 µM; in experiment [3] it was more than 100 µM; in experiment [4], 73.1 µM; in [5] it was 43.3 µM; in [6], 66.6 µM. Moreover, the TGI in experiment [7] was more than 100 µM; in experiment [8] it was more than 100 µM; in [9], 70.2 µM; in [10] it was 57.5 µM.
For `Cc1ccc(-c2nc(/C=N/Nc3cc(C)nc4ccc(Cl)cc34)c(C)o2)cc1`, the GI50 in experiment [1] was 2.17 µM; in experiment [2], 1.93 µM; in experiment [3], 1.88 µM; in experiment [4] it was 1.78 µM; in experiment [5] it was 1.88 µM; in experiment [6], 1.43 µM. The GI50 is 1.61 µM in [7], 2.01 µM in [8], 1.8 µM in experiment [9] and 1.78 µM in experiment [10]. The TGI in experiment [1] was 4.48 µM; in [2], 3.79 µM; in experiment [3], 3.88 µM; in experiment [4], 3.29 µM; in experiment [5] it was 3.58 µM; in experiment [6] it was 2.98 µM. The TGI in experiment [7] amounted to 4.81 µM; in [8] it was 4.11 µM; in experiment [9] it was 3.31 µM; in experiment [10], 3.21 µM.
In the case of `COc1ccccc1NC(=O)C1=C(C)NC(C)=C(C(=O)Nc2ccccc2OC)C1/C=C/c1ccccc1`, the TGI in [1], in experiment [2], in experiment [3], in [4], in experiment [5] and in experiment [6] was more than 100 µM throughout. For the same molecule, the TGI in [7], in experiment [8], in [9] and in experiment [10] was more than 100 µM in each case.
For the molecule `O=C(/C=C/C=C/c1ccccc1)c1ccco1`, the GI50 in experiment [1] is 15 µM; in experiment [2] it was 21 µM; in [3], 11 µM; in experiment [4] it was 17.1 µM; in [5], 22.2 µM; in experiment [6], 7.96 µM. Further, the GI50 in experiment [7] was 10.2 µM; in experiment [8], 18.8 µM; in experiment [9], 13.2 µM; in [10], 28.8 µM. In addition, the TGI in experiment [1] is 30.4 µM; in experiment [2], 47.5 µM; in experiment [3], 24.1 µM; in experiment [4] it was 31.5 µM; in experiment [5], 45.8 µM; in [6] it was 43.7 µM. The TGI in [7] came to 33.3 µM; in [8] it was 37.3 µM; in [9], 34.6 µM; in experiment [10] it was 84.6 µM.
Consider `O=C(O)/C(Cc1ccnc2ccccc12)=N\O`, for which the TGI in [1], in experiment [2], in [3], in experiment [4], in [5] and in [6] was more than 100 µM in each case. Moreover, the TGI in [7], in [8], in experiment [9] and in experiment [10] was more than 100 µM in each case.
For `CCCc1cc(=O)n2c(C(=O)Nc3ccc(F)cc3)c(C(=O)Nc3ccc(F)cc3)sc2n1`, the GI50 is more than 160 µM in [1]; 73.4 µM in experiment [2]; 111 µM in experiment [3]; more than 160 µM in [4]; 2.29 µM in experiment [5]; 5.27 µM in [6]. The GI50 in experiment [7] was more than 160 µM; in [8], 24.1 µM; in experiment [9] it was more than 160 µM; in [10] it was 41.7 µM. For the same molecule, the TGI in experiment [1] was more than 160 µM; in experiment [2] it was more than 160 µM; in [3], more than 160 µM; in experiment [4] it was more than 160 µM; in [5], 33.2 µM; in experiment [6] it was 18.6 µM. Further, the TGI is more than 160 µM in [7], 54.4 µM in [8], more than 160 µM in experiment [9] and more than 160 µM in experiment [10].
As for `CCCCCCCCCCCCC(O)c1ccco1` (stereo not drawn), the GI50 is 16.2 µM in [1]; 29.5 µM in experiment [2]; 21.7 µM in experiment [3]; 20.9 µM in [4]; 20.6 µM in experiment [5]; 15.5 µM in experiment [6]. Moreover, the GI50 was 19.4 µM in experiment [7], 22 µM in experiment [8], 19.7 µM in [9] and 22.5 µM in experiment [10]. Further, the TGI in experiment [1] was 30.4 µM; in [2] it was more than 100 µM; in experiment [3] it was 48.1 µM; in experiment [4], 38.7 µM; in experiment [5], 36.8 µM; in [6] it was 32.1 µM. The TGI in experiment [7] amounted to 38.5 µM; in experiment [8] it was 46 µM; in experiment [9] it was 39.3 µM; in [10], 44.7 µM.
With `CC(=O)N1CCN(CCNC(=O)n2cc(-c3ccncc3)c(-c3cc(O)cc(Cl)c3)n2)CC1`, the GI50 in experiment [1] is 17.1 µM; in [2] it was 10.1 µM; in [3], 14 µM; in experiment [4], 5.73 µM; in experiment [5], 16.7 µM; in experiment [6] it was 5.93 µM. Also, the GI50 in experiment [7] was 11.8 µM; in experiment [8], 10.8 µM; in [9], 10.5 µM; in experiment [10], 12.4 µM. Further, the TGI in experiment [1] was found to be 46 µM; in experiment [2], 26.3 µM; in experiment [3] it was 34.4 µM; in experiment [4] it was 21.1 µM; in experiment [5], 32.6 µM; in [6], 24.3 µM. The TGI in experiment [7] amounted to 66.5 µM; in [8], 27 µM; in [9], 25.7 µM; in experiment [10], 25.4 µM.
Consider `Cc1ccc(NC(=O)C(=O)CC(=O)c2c(C)n([O-])c3ccccc3[n+]2=O)cc1C`, for which the TGI in experiment [1], in experiment [2], in experiment [3], in experiment [4], in [5] and in experiment [6] was more than 100 µM each time. For the same molecule, the TGI in experiment [7], in experiment [8], in [9] and in [10] was more than 100 µM each time.
As to `COc1cccc2cc(N(C)c3nc(C)nc4c3CCC4)ccc12`, the GI50 in [1] was less than 0.01 µM; in experiment [2] it was less than 0.01 µM; in experiment [3] it was less than 0.01 µM; in [4], less than 0.01 µM; in [5] it was less than 0.01 µM; in [6], less than 0.0169 µM. The GI50 in [7], in experiment [8], in experiment [9] and in [10] was less than 0.01 µM throughout. Besides, the TGI is 18 µM in experiment [1]; 12.4 µM in experiment [2]; 10.7 µM in experiment [3]; less than 0.01 µM in experiment [4]; 13.1 µM in experiment [5]; 1.48 µM in [6]. For the same molecule, the TGI in [7] is 14.7 µM; in [8], 14.2 µM; in experiment [9], 12.5 µM.
Consider `CC(C)c1cccc(C(C)C)c1N1C(=O)C(=O)C(c2nc3ccccc3o2)C(=O)C1=O`, for which the TGI in [1], in experiment [2], in experiment [3], in [4], in experiment [5] and in experiment [6] was more than 100 µM each time. Moreover, the TGI in [7], in [8], in experiment [9] and in experiment [10] was more than 100 µM in each case.
For the molecule `O=C1CSC(c2ccccc2Cl)N1c1nnc(Cn2cnnc2)o1` (stereo not drawn), the GI50 in experiment [1] was 16.4 µM; in [2], 7.91 µM; in [3], 5.2 µM; in experiment [4] it was 13.6 µM; in experiment [5], 17.6 µM; in experiment [6] it was 19.3 µM. Besides, the GI50 is 5.83 µM in [7], 22.6 µM in experiment [8], 3.38 µM in experiment [9] and 14.9 µM in [10]. Also, the TGI is more than 100 µM in [1]; 43.8 µM in [2]; 20.3 µM in [3]; 35.2 µM in experiment [4]; 44.6 µM in experiment [5]; 79.1 µM in experiment [6]. In addition, the TGI in [7] was more than 100 µM; in experiment [8], 94.8 µM; in experiment [9] it was 19.5 µM; in experiment [10], 75.7 µM.
As to `Cc1ccc([N+](=O)[O-])c2c(NCCNC(=O)c3cc(C(=O)NCCNc4ccnc5c(C)ccc([N+](=O)[O-])c45)n(C)n3)ccnc12`, the TGI was more than 100 µM in [1]; more than 100 µM in experiment [2]; more than 100 µM in experiment [3]; more than 100 µM in [4]; more than 71.2 µM in [5]; more than 100 µM in experiment [6]. The TGI was more than 46.4 µM in experiment [7], more than 100 µM in experiment [8], more than 100 µM in experiment [9] and more than 100 µM in experiment [10].
`CSc1nc2nc3c(nc2c(=O)n1C)C(=O)c1ccccc1C3=O`: the GI50 in experiment [1] was 0.142 µM; in experiment [2], 0.101 µM; in experiment [3] it was 0.278 µM; in experiment [4], 0.196 µM; in [5], 0.097 µM; in [6], 0.476 µM. Also, the GI50 in experiment [7] was 0.259 µM; in experiment [8] it was 0.207 µM; in experiment [9], 0.157 µM; in [10], 0.774 µM. Further, the TGI in experiment [1] came out at 0.422 µM; in experiment [2] it was 0.393 µM; in [3], 0.994 µM; in experiment [4], 0.384 µM; in experiment [5] it was 0.413 µM; in experiment [6] it was 2.59 µM. The TGI was 0.794 µM in [7], 0.471 µM in experiment [8], 0.315 µM in experiment [9] and 2.04 µM in experiment [10].
